Measurements reported in patent US20220306603A1, “TARGETING DNA REPAIR IN TUMOR CELLS VIA INHIBITION OF ERCC1-XPF” (The Governors of the University of Alberta, priority 2019, published 2022).
pIC50: −log10 of the molar value. Entries after “also recorded” stand apart in the source; their conditions may differ.

Tests used:
[1] = test system: serum proteins; test: ADME screening: serum protein binding; assay type: in vitro ADME; settings: Table 8
[2] = Hepatocyte stability in vitro; assay type: in vitro ADME; settings: Table 8
[3] = ADME screening: LogD; settings: Table 8
[4] = test system: five CYP450 tested enzymes; test: ADME screening: CYP inhibition (five CYP450 enzymes); settings: Table 8
[5] = test system: five CYP450 enzymes (CYP1A2, CYP2C9, CYP2C19, CYP2D6, CYP3A4-M); test: as above; settings: human
[6] = biological target: T1, ERCC1-XPF complex (Homo sapiens, UniProt Q92889); test: Steady-state intrinsic tryptophan fluorescence quenching binding assay; settings: 2 μM compound; excitation 295 nm
T1 construct: His6; made in house; host or cells: E. coli BL21 (DE3)
T1 sequence (Q92889 1-916): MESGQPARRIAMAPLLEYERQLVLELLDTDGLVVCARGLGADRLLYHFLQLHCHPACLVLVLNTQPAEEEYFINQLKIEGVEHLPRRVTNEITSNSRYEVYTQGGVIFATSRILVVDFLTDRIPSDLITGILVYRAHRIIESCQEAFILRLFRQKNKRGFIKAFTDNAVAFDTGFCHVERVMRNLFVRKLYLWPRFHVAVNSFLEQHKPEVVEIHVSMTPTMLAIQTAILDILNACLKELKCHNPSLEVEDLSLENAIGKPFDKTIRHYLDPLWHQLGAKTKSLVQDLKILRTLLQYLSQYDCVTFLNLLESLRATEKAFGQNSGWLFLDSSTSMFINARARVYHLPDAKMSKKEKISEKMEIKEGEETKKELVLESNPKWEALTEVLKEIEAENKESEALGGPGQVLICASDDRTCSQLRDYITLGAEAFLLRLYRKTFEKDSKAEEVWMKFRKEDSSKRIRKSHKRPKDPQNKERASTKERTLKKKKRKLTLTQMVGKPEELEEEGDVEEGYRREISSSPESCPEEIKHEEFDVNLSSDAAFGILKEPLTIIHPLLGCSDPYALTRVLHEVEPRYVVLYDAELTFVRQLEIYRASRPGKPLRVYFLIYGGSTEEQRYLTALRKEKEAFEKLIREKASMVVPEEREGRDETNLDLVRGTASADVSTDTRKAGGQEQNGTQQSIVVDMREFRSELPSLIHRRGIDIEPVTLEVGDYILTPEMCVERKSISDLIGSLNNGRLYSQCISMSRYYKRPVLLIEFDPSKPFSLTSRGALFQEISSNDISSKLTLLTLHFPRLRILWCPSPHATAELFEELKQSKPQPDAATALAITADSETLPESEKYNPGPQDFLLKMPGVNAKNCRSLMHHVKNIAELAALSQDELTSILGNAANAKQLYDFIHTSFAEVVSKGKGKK
Experimental: Steady-state fluorescence spectra were measured at room temperature on a Perkin-Elmer LS-55 spectrofluorometer (Freemont, Calif.) with 5 nm spectral resolution for excitation and emission using 30-80 nM solution of purified recombinant ERCC1-XPF protein complex. […] In studying the effects of inhibitors on protein fluorescence intensities, additions to protein samples were made from inhibitors stock solutions, keeping the protein dilution below 3%.

[7] = test system: HCT116 cells; test: Clonogenic survival assay, UV treatment; assay type: cell-based, human; settings: 254 nm UV 0-10 J/m^2; compound 0.5-4 μM
Experimental: UV treatment: HCT116 cells (100-800 cells depending on the UV dose) were plated in triplicate in 60-mm petri dishes. The cells were incubated overnight at 37° C. in a humidified atmosphere containing 5% CO2 to allow for cell attachment. […] Medium was removed again, and cells were exposed to increasing doses (0-10 J/m^2) of UV-C radiation and then incubated for a further 10 days in the presence of inhibitor at 37° C. in a 5% CO2 atmosphere to allow for colony formation. After this period plates were stained with crystal violet and colonies were counted using a Colcount instrument (Oxford Optronix, Abingdon UK). Finally, plating efficiency and surviving fraction were calculated.

[8] = ADME screening: cell permeability and efflux ratio; settings: Table 8
[9] = test system: HCT116 cells; test: Cellular repair of UV-induced cyclobutane pyrimidine dimers (immunofluorescence); assay type: cell-based, human
Experimental: Protocol of Mirzayans et al. was followed with minor modifications (30). Approximately 1×10^5 HCT116 cells were seeded on each coverslip and allowed to attach overnight. Medium was then removed and cells were treated for one hour with the desired compound. The medium was removed, and cells were exposed to 8 J/m^2 UV-C radiation (G15T8 254 nm lamp, Ushio America Inc, Cypress, Calif.) followed by adding fresh medium containing the compound. Plates were incubated at 37° C. for different periods of time up to 24 hours and fixed in 50:50 methanol/1× phosphate-buffered saline (PBS) solution, followed by replacing the methanol/PBS solution with 100% methanol and incubation in −20° C. After 20 minutes, methanol was removed, and cells were treated with PBS for 5 minutes in room temperature. After fixing, cells were permeabilized in 0.5% Triton/PBS and washed with PBS, denatured in 2 N HCl, and neutralized by twice washing with 0.1 M borate buffer pH 8.5. Cells on cover slips were washed once with PBS followed by blocking with 5% non-fat dry milk/PBS for 30 minutes. Mouse anti-thymine dimer monoclonal antibody (Cat. No. MC-062, Kamiya Biomedical Company, Seattle, Wash.) was applied to the cover slips for one hour in the dark and at room temperature. Cells were then washed with PBS containing 0.1% Tween-20 and incubated with rabbit anti-mouse IgG-Alexafluor antibody (Invitrogen, Carlsbad, Calif.) followed by two washes with PBS/(0.1%)Tween-20. Cells on coverslips were then washed with PBS, rinsed with water, and mounted on slides using DAPI glycerol mounting solution. Slides were kept at 4° C. before fluorescent microscopic evaluation and measurement of fluorescence intensity with MetaXpress Version: 6.2.1.704 software (Molecular Devices, Sunnyvale, Calif.).
To test for inhibition of nucleotide excision repair, we monitored the cellular removal of UVC-induced cyclobutane pyrimidine dimers (CPDs) in HCT116 cells over a 24-hour period using an immunochemical assay.

[10] = Microsomal stability in vitro (human liver microsomes)

In the case of `COc1ccc2nc3cc(Cl)ccc3c(Nc3ccc(O)c(CN4CCN(CCN(C)C)CC4)c3)c2c1` [Compound A4, 4-((6-Chloro-2-methoxyacridin-9-yl)amino)-2-((4-(2-(dimethylamino)ethyl)piperazin-1-yl)methyl) phenol], the “Serum protein binding (% bound)” value [1] was “(99.9) % bound”, the “Serum protein binding (in words)” value [1] was “Strong” and the “Hepatocyte stability in vitro CLint (in words)” value [2] was “(medium”. For the same compound, the “LogD (rating)” value [3] was “Good”, the logD [3] was 2.86 and the “CVP inhibition (5 enzyme) (rating)” value [4] was “Good”. The pIC50 [5] was at most 6.00, the “quenching of protein fluorescence at 330 nm” value [6] was about 23±2% and the “sensitisation to UV radiation, clonogenic survival (in words)” value [7] was “significantly reduced survival”. The “Cell permeability (Mean recovery %) (in words)” value [8] was “Low”, the “inhibition of cellular removal of CPDs / thymidine dimers (in words)” value ([9]; 8 J/m^2 UV-C, up to 24 h post-irradiation) was “significantly different; also recorded: significant inhibition of removal of CPDs” and the “CPDs removed over 24 hours after UV exposure” value ([9]; 8 J/m^2 UV, control approximately 80%) was “approximately 60%”. For the same compound, the “metabolism on exposure to human liver microsomes (in words)” value [10] was “metabolism in the midrange” and the “Microsomal stability in vitro CLint (in words)” value ([10]; Table 8) was “Low”.
